According to publication PMC7497641, “Neurotropic activity and safety of methylene-cycloalkylacetate (MCA) derivative 3-(3-allyl-2-methylenecyclohexyl) propanoic acid” (ACS Chemical Neuroscience, 2020):

Tests used:
[1] = target: T1, Nicotinic acetylcholine Receptor alpha-4 beta-2 (nAChR(a4/b2)) (Homo sapiens, UniProt P17787+P43681); assay: cell-based; settings: Ion channel, read-out: RC50 (the source's name)
T1 construct: host or cells: unnamed DiscoverX cell line

[2] = target: T2, Kv11.1, the alpha subunit of a potassium ion channel (hERG) (Homo sapiens, UniProt Q12809); assay: cell-based; settings: Blocker
T2 construct: host or cells: unnamed DiscoverX cell line

[3] = system: PGE2 production in PC12 cells; assay: PGE2 production measured by ELISA; settings: different concentrations of HU-MCA-13, dose-dependent; 24 h
[4] = target: 5-Hydroxy tryptamine (Serotonin) Receptor 2A (HTR2A) (Homo sapiens, UniProt P28223); assay: SAFETYscan GPCR Calcium Flux; format: cell-based
[5] = target: Cholecystokinin Receptor A (CCKAR) (Homo sapiens, UniProt P32238); assay: SAFETYscan GPCR Calcium Flux; format: cell-based; settings: read-out: RC50 (the source's name)
[6] = target: T3, Dopamine Receptor D1 (DRD1) (Homo sapiens, UniProt P21728); assay: SAFETYscan GPCR cAMP; format: cell-based
T3 construct: host or cells: cAMP Hunter cell lines

[7] = target: Arginine Vasopressin Receptor 1A (AVPR1A) (Homo sapiens, UniProt P37288); assay: SAFETYscan GPCR Calcium Flux; format: cell-based; settings: read-out: RC50 (the source's name)
[8] = target: T4, AKT1 (Homo sapiens, UniProt P31749); assay: PhosphoSens CSox based kinase assay; format: biochemical; settings: 5 μM HU-MCA-13
T4 construct: AKT1, amino acids 104-480, Carna (cat. & lot #: 01 -101,; purchased Carna 01-101
Source text: (§1) The initial focus was to measure the modulatory activity in vitro of MCA-13 on protein kinases which were reported to be involved in induction of neurite outgrowth.[18],[43] To do this, we took advantage of a powerful method to measure the activity of recombinant protein kinases using a homogeneous and continuous (kinetic) format, where the level of chelation-enhanced fluorescence (CHEF) is directly proportional to the amount of phosphorylated, real-time sensors consisting of sulfonamido-oxine (Sox) chromophore linked to a peptide or protein substrates of selective kinases.[44] This assay is ideal for elucidating drug mechanism of action and is increasingly being applied earlier in the drug development workflow to address off target effects and/or the challenges and opportunities for next generation protein kinase inhibitors.[45] Since neurotrophins induce neurite outgrowth by activating the different tropomyosin kinase receptors (Trk), and small molecules agonists of Trk receptors can selectively activate Trks,[46] we first investigated the ability of HU-MCA-13 to modulate TRKA, TRKB and TRKC phosphorylation activities (Supporting Information, Figure S3-2). […] The TRKs constructs used in the assay contained only the intracellular kinase domain (amino acids 442–786) and therefore presently we cannot exclude that HU-MCA-13 may interact with the TRKs extracellular domain thereby inducing the conformational change required for the kinase domain activation. […] Moreover, no effects of HU-MCA-13were found on other kinases (ASK1, ERK2, JNK3, p38α, CDK5, KDR-VEGFR, AKT1, GSK3β, PDGFRβ, PKACα, PKC, CK1, IKKβ) which stimulate neurite outgrowth. Also, no effects were observed of HU-MCA-13 on kinases (EGFR, IGF1R, FGFR 1 and 2, CAMK2α,) which inhibit neurite outgrowth or calcineurin phosphatase which dephosphorylates the neurite outgrowth stimulatory protein, cofilin.[47]
(§2) MCA-13 safety b y in vitro eval uati on usi ng Phos pho Sens®C Soxb ased kinase […]
(§3) Method: Kinase Activity Measurements
(§4) Kinase activity was measured continuously using the PhosphoSens®technology (AssayQuant Technologies Inc., Marlborough, MA) according to the manufacturers’ recommendations (http://www.assayquant.com/) . This one-step homogeneous assay use s chelation-enh anced fluorescence via optimized substrate sensors unique for each kinase, containing the unnatural fluorogenic amino-acid Sox.
(§5) The following kinases which, upon stimulation or inhibition with small molecule modulators, induced neurite outgrowth, were obtained from different companies and were used in this study at the following concentrations: 2.
(§6) 25 µL final reaction volume including : 2.5 µl Sox-based substrate (10 x), 17.5 µl reaction mix with AT P, 5.0 µL Kinase [5x in EDB (Enzyme Dilution Buffer : 20 mM TRIS, pH 8.0, 0.01% Brij -35, 0.1 mM EGTA, 5% Glycerol, 1 mM DTT, 1 mg/mL Bovine Serum Albumin]. 5-45 min preincubation (all except EDB/kinase) at 30 °C of substrate in reaction mix and ATP ensuring that the progress kinetic curve for the background fluorescence w as flat. Reaction was run at 30 °C for […]
(§7) Final Reaction Conditions.
(§8) Protein kinase activity was determined in 54 mM HEPES, pH 7.5 1 mM ATP 1.2 mM DTT (none in ASK1) 0.012% Brij-35 1% glycerol 0.2 mg/ml BSA 0.52 mM EGTA (none in assays of CAMK2α, PKCε, PKCι, Calcineurin A/B) 140 µM phosphatidylserine/3.8 µM diacylglycerol (PKCε, PKCι only) 5 ng/µl calmodulin/0.4 mM CaCl2 (CAMK2α, Calcineurin A/B only) 10 mM […]
(§9) IKKβ, AKT1, GSK3β, PKCε, PKCι, PKACα, KDR, CK1δ, EGFR, ASK1, IGF1R, CAMK2α, DLK, FGFR2, FGFR1) in the presence or absence of 5 µ M H U-MCA-13 test compound. All components e xcept enzyme were equilibrated to 30 °C prior to setting up reactions run in Corning, 384-well, white flat round bottom polystyrene NBS microplates (Cat. #3824) after sealing using optically-clear adhesive film [TopSealA -Plus plate seal, PerkinElmer (Cat. #6050185)], applied with a roller to eliminate evaporation and resulting drift. Europium was added to a final […]

[9] = target: T5, CDK5 (Homo sapiens, UniProt Q00535); assay: PhosphoSens CSox based kinase assay; format: biochemical; settings: 5 μM HU-MCA-13
T5 construct: CDK5/p25, amino acids 1 -292/99 -307, Carna; purchased Carna 04-106
Source text: as §1, §2, §3, §4, §5, §6, §7, §8, §9

[10] = target: T6, Cyclooxygenase 1 (COX 1) (Homo sapiens, UniProt P23219); assay: biochemical; settings: Inhibitor, Enzymatic
T6 construct: purchased BPS Bioscience

[11] = target: T7, Norepinephrine transporter (NET) (Homo sapiens, UniProt P23975); assay: SAFETYscan Transporter assay; format: cell-based
T7 construct: host or cells: unnamed DiscoverX cell line

[12] = target: Nuclear Hormone Glucocorticoid Receptor (GR) (Homo sapiens, UniProt P04150); assay: SAFETYscan Nuclear Hormone Receptor assay; format: cell-based; settings: read-out: RC50 (the source's name)
[13] = system: calcineurin phosphatase; assay: PhosphoSens CSox based phosphatase assay; format: biochemical; settings: 5 μM HU-MCA-13
Source text: The initial focus was to measure the modulatory activity in vitro of MCA-13 on protein kinases which were reported to be involved in induction of neurite outgrowth.[18],[43] To do this, we took advantage of a powerful method to measure the activity of recombinant protein kinases using a homogeneous and continuous (kinetic) format, where the level of chelation-enhanced fluorescence (CHEF) is directly proportional to the amount of phosphorylated, real-time sensors consisting of sulfonamido-oxine (Sox) chromophore linked to a peptide or protein substrates of selective kinases.[44] […]
as §4, with “Sox. […]” for “Sox.”
as §8

[14] = read-out: RC50 (the source's name)

Cholecystokinin Receptor A (CCKAR), sequence (P32238 whole entry): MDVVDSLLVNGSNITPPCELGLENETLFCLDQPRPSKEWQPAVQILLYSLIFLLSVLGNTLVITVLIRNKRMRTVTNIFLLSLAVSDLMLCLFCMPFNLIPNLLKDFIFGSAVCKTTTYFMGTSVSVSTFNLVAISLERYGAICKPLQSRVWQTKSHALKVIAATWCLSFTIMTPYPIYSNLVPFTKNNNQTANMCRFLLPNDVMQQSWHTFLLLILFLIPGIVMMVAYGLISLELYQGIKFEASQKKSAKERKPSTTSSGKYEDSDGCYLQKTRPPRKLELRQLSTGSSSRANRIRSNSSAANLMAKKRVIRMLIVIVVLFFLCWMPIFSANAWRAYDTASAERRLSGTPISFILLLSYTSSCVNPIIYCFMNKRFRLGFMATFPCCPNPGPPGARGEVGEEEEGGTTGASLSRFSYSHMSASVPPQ
T7 sequence (P23975 whole entry): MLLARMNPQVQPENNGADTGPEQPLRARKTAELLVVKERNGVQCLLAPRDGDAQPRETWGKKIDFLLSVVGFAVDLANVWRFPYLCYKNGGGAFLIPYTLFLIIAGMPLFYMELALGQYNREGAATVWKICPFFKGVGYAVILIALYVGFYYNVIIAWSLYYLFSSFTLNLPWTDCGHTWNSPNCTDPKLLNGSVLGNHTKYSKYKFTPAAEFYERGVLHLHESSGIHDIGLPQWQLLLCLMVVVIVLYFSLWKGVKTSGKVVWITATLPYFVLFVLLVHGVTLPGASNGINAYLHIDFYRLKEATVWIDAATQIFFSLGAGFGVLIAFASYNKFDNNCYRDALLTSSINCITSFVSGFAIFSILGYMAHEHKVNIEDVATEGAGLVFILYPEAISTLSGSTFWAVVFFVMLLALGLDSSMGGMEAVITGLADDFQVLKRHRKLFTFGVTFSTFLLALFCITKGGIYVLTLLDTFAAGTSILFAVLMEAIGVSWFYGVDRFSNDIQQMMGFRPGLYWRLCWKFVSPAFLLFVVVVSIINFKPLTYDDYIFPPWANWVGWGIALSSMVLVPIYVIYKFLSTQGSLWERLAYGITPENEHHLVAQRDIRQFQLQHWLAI
T2 sequence (Q12809 whole entry): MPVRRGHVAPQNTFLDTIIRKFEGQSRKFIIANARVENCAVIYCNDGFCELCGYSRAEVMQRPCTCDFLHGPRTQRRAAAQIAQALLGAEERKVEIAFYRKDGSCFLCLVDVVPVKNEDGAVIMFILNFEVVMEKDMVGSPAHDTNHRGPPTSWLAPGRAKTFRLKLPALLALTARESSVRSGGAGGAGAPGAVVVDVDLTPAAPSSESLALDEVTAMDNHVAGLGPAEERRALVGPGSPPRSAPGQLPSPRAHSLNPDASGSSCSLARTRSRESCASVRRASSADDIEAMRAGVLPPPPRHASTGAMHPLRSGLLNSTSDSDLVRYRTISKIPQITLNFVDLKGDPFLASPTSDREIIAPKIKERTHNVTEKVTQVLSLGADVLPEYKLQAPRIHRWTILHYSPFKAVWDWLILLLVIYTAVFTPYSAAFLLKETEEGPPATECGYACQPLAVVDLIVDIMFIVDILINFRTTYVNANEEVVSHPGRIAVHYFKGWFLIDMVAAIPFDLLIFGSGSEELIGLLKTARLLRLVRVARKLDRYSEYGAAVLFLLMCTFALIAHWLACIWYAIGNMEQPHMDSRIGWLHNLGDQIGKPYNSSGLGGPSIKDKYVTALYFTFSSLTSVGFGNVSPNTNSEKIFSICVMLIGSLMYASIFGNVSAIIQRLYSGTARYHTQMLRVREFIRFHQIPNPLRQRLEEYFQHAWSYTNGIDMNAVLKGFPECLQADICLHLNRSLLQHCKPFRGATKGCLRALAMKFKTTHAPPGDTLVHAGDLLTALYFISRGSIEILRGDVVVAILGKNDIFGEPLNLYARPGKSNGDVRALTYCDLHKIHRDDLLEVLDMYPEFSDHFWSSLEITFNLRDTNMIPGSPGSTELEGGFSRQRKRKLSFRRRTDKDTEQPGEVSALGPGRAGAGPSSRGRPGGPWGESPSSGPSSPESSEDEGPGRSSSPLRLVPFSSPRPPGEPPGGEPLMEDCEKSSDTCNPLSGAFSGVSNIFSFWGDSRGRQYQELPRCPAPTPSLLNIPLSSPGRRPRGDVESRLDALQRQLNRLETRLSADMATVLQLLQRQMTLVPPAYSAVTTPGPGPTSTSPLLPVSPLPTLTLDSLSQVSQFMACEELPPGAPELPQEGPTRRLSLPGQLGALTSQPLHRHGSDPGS
Arginine Vasopressin Receptor 1A (AVPR1A), sequence (P37288 whole entry): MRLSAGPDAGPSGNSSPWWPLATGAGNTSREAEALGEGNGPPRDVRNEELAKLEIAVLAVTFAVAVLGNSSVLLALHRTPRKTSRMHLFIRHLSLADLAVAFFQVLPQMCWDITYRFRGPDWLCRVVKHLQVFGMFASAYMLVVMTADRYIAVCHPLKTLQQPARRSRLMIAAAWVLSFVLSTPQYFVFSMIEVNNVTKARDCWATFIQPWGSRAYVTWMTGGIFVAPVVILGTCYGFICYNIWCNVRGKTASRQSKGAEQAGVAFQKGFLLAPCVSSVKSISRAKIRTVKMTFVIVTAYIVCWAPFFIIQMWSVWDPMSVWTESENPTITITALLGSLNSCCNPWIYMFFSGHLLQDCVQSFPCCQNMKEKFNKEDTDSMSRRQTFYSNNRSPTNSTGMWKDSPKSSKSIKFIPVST
T6 sequence (P23219 24-599): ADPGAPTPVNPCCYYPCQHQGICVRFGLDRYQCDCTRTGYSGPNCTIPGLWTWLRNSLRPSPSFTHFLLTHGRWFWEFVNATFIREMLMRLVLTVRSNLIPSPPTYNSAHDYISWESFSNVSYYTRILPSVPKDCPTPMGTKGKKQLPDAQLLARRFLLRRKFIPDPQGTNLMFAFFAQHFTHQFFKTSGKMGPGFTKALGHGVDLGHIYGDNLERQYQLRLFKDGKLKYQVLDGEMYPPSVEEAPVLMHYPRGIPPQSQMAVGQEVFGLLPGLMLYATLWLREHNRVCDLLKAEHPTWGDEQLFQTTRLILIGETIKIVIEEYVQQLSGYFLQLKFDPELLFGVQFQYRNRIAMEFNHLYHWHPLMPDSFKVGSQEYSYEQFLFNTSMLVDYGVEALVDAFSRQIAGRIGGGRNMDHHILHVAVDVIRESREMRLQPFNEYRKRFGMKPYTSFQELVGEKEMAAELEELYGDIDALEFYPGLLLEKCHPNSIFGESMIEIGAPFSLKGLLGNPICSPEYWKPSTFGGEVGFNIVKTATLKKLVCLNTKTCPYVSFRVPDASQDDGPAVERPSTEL
T3 sequence (P21728 whole entry): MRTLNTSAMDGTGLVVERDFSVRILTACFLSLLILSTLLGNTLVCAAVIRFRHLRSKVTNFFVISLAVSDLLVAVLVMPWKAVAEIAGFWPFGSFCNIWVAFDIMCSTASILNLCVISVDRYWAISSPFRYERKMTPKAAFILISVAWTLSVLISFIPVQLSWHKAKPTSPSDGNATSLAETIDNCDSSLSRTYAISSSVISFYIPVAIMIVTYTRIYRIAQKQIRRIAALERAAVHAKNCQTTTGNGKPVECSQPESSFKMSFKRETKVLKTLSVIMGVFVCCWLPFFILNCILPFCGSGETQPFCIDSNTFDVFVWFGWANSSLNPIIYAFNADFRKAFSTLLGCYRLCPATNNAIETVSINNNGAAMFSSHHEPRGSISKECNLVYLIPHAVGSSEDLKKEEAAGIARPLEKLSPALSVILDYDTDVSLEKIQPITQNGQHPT
5-Hydroxy tryptamine (Serotonin) Receptor 2A (HTR2A), sequence (P28223 whole entry): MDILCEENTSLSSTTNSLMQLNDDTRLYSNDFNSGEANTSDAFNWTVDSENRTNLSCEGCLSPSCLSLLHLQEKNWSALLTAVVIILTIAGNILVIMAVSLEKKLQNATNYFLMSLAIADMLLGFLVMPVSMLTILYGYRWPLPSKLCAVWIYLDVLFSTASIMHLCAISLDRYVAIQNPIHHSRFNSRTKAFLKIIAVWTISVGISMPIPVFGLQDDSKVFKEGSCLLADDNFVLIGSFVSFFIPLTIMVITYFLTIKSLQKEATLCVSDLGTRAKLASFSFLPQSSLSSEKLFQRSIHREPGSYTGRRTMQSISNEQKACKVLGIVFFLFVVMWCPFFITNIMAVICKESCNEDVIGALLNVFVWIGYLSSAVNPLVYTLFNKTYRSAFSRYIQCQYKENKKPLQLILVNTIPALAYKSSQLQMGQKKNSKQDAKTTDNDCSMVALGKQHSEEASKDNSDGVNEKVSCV
Nuclear Hormone Glucocorticoid Receptor (GR), sequence (P04150 whole entry): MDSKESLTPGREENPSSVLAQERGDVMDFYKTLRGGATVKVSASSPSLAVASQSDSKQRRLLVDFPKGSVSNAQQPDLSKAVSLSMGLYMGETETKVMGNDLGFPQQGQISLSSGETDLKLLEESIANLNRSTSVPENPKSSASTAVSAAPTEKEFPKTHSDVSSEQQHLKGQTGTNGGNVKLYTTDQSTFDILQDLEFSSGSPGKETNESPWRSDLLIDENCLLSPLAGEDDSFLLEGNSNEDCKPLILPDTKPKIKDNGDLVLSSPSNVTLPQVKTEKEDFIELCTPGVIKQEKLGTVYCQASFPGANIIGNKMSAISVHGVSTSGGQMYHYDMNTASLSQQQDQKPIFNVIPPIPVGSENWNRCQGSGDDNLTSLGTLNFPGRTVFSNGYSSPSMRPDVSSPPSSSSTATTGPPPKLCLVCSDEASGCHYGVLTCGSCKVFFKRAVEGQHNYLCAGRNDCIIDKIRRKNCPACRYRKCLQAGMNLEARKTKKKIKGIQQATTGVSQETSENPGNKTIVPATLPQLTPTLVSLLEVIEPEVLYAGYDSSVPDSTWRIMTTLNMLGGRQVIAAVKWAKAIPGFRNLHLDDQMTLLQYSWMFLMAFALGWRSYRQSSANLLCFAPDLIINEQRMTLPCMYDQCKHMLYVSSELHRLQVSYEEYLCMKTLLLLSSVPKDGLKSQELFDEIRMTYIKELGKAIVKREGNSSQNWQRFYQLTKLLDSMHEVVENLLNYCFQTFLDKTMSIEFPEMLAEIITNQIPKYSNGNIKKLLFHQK

C=CCC1CCCC(CCC(=O)O)C1=C (stereo not shown) [HU-MCA-13, 3-(3-allyl-2-methylenecyclohexyl)propanoic acid]
IC50 ([1]; Blocker): > 10 µM
EC50 ([1]; Opener): > 10 µM
MCA-13 Max. Responce ([2]; 10 μM): 0%
IC50 [2, 14]: > 10 µM
increase of PGE2 production over control, untreated cultures [3]: 3–6 fold
EC50 [4]: > 10 µM
IC50 [4]: > 10 µM
EC50 ([5]; Agonist): > 10 µM
IC50 ([5]; Antagonist): > 10 µM
EC50 [6]: > 10 µM
IC50 [6]: > 10 µM
EC50 ([7]; Agonist): > 10 µM
IC50 ([7]; Antagonist): > 10 µM
effect on kinase activity [8]: no effects
effect on kinase activity [9]: no effects
inhibition at 10 µM ([10]; 10 μM, read-out: MCA-13 Max. Responce): 25%
IC50 [10, 14]: > 10 µM
IC50 [11]: > 10 µM
inhibition at 10 µM ([11]; 10 μM, Blocker, Transporter, read-out: MCA-13 Max. Responce): 3.53%
EC50 ([12]; Agonist): > 10 µM
IC50 ([12]; Antagonist): > 10 µM
effect on phosphatase activity [13]: no effects
